This is an account of results in patent publication US10793525B2, “13-cis-RAMBA retinamides that degrade MNKs for treating cancer” (UNIVERSITY OF MARYLAND, BALTIMORE, priority 2014, dated 2020).

Data set [1] deals with MDA-MB-231 human breast cancer cells. Particulars: MDA-MB-231 cells; previously reported in Ramalingam S, et al.; read-out: GI50s MDA-MB-231; cited from earlier work.
Data set [2] concerns MDA-MB-468 human breast cancer cells. Particulars: MDA-MB-468 cells; previously reported in Ramalingam S, et al.; read-out: GI50s MDA-MB-468; cited from earlier work.
In data set [3] the test system is SKBR-3 human breast cancer cells. Particulars: SKBR-3 cells; previously reported in Ramalingam S, et al.; read-out: GI50s SKBR-3; cited from earlier work.
Data set [4] has as its system MCF-7 human breast cancer cells. The data set is described as follows: MTT cell proliferation assay, MCF-7. It is filed as cell-based. Particulars: Homo sapiens, MCF7; MCF-7 cells, MTT, SEM < 10%; read-out: GI50s MCF-7. An excerpt:
(§1) MCF-7, MDA-MB-231, MDA-MB-468 and SKBR-3 human breast cancer cells and LNCaP, PC-3, and CWR22Rv1 human prostate carcinoma cells (American Type Culture Collection, Manassas, Va., USA) were maintained in RPMI 1640 media (Gibco-Life Technologies, Grand Island, N.Y., USA) supplemented with 10% fetal bovine serum and 1% penicillin/streptomycin. Western blotting was done as mentioned previously,^8, 13b using the following antibodies: AR, Bad, Bax, Bcl-2, eIF4E, Mnk1, Mnk-2, N-cadherin, PARP, peIF4E^ser209 purchased from Cell Signaling Technology, Danvers, Mass., USA. Anti-Mnk2 was purchased from Sigma-Aldrich and normal rabbit IgG, cyclin D1 was from Santa Cruz Biotechnology, CA, USA.
(§2) Cells were plated (2500 cells/well) in 96 well plates and treated with or without specified compounds as described previously.^8a, 12b
(§3) The clinically relevant retinoids, ATRA and 4-HPR and the Mnk inhibitor, cercosporamide were used as comparators in the assays.

Data set [5] deals with MDA-MB-231 human breast cancer cells. In words: MTT cell proliferation assay, MDA-MB-231. It is filed as cell-based. The settings on record: MDA-MB-231 cells, SEM < 10%, read-out: GI50s MDA-MB-231.
Text: as §1, §2, §3
A general note: Tetrazolium assays rely on reduction of a dye to a coloured formazan, in cell work by metabolically active cells.

Data set [6] has as its system MDA-MB-468 human breast cancer cells. The data set is described as follows: MTT cell proliferation assay, MDA-MB-468. The settings on record: MDA-MB-468 cells, SEM < 10%, read-out: GI50s MDA-MB-468. It is filed as cell-based.
Text: as §1, §2, §3

The subject of data set [7] is SKBR-3 human breast cancer cells. The data set is described as follows: MTT cell proliferation assay, SKBR-3. It is filed as cell-based. Particulars: SK-BR-3, SKBR-3 cells, SEM < 10%, read-out: GI50s SKBR-3.
Text: as §1, §2, §3

Data set [8] relates to LNCaP human prostate carcinoma cells. In words: MTT cell proliferation assay, LNCaP. It is filed as cell-based. The settings on record: SEM < 10%, read-out: GI50s LNCaP.
Text: as §1, §2, §3
(§4) The PC-3 cell line was the least sensitive to all the compounds tested.

Data set [9] has as its system CWR22Rv1 human prostate carcinoma cells. The data set is described as follows: MTT cell proliferation assay, CWR22Rv1. The settings on record: SEM < 10%, read-out: GI50s CWR22Rv1. It is filed as cell-based.
Text: as §1, §2, §3, §4

The test system of data set [10] is PC-3 human prostate carcinoma cells. In words: MTT cell proliferation assay, PC-3. It is filed as cell-based. Particulars: PC-3 cells, SEM < 10%, read-out: GI50s PC-3.
Text: as §1, §2, §3, §4

Data set [11] deals with Mnk1 and 2, peIF4E, eIF4E and cPARP. In words: Western blot of lysates from MCF-7, MDA-MB-231 and MDA-MB-468 cells. In kind it is cell-based, human. The settings on record: MCF-7, MDA-MB-231, MDA-MB-468 cells, 24 hours.
Text: as §1
As we previously reported, the anti-proliferative effects of the 1st generation MNKDAs in BC cells was due to degradation of Mnk1/2 with subsequent depletion of peIF4E and induction of apoptosis.^8a To determine if these compounds modulate Mnk1/2 and related oncogenic proteins, the inventors performed western blot of lysates from MCF-7, MDA-MB-231 and MDA-MB-468 human breast cancer cells treated with Compounds 16, 20, and 22, or with vehicle (DMSO, negative control), or Compound 6 (positive control). Equal protein concentrations from MCF-7 (FIG. 3A), MDA-MB-231 (FIG. 3B) and MDA-MB-468 (FIG. 3C) cells treated for 24 hours with Compounds 16, 20 and 22 at the various concentrations as indicated and Compound 6 (20 μmol/L) were separated by SDS-PAGE and western blots probed with antibodies to Mnk1 and 2, peIF4E, eIF4E and cPARP. Vehicle treated cells were included as control and all blots were reprobed for GAPDH for loading control.
On the technique in general: Immunoblotting shows a protein as a band on a membrane.

In data set [12] the test system is MDA-MB-231 cells. The data set is described as follows: Wound-healing assay, MDA-MB-231 cell migration. It is filed as cell-based, human. Particulars: 5 μM, 24 h. The method, then: (§5) Wound healing assay and matrigel invasion assay were also conducted as described previously using highly metastatic PC-3 cells following treatment with 5 μM of RRs for 24 h.^8a,26
(§6) Based on previous studies with closely related compound,^8 the inhibitory effects of Compounds 16, 20 and 22 on cell migration were evaluated, using the human metastatic BC cell line, MDA-MB-231 by wound-healing assay. MDA-MB-231 cells (5×10^5 cells/well) were seeded on Boyden chamber, grown to confluence and scratches made at experimental tome zero. The cells were treated with indicated compounds (5 μM each) for 24 h. Representative photomicrographs of initial and final wounds are shown at 100× magnification. […] At 24 hours after cell monolayers were wounded, control cells had completely filled in the scratched area.

For data set [13], the system named is fAR, Mnk1/2, peIF4E, cyclin D1 and cleaved PARP. In words: Western blot of lysates from LNCaP cells. The settings on record: 0.6-20 μM, 24 hours. It is filed as cell-based, human.
Text: as §1
Equal protein concentrations from LNCaP cells treated with Compounds 16, 20 and 22 at different concentrations (0.6-20 μM) for 24 hours were separated by SDS-PAGE and western blots probed with antibodies to fAR, Mnk1/2, peIF4E, cyclin D1 and cleaved PARP. Vehicle treated cells were included as a control and all blots were reprobed for β-actin for loading control.

Data set [14] concerns PC-3 cells. The data set is described as follows: Wound-healing assay, PC-3 cell migration. It is filed as cell-based, human. Particulars: 5 μM, 24 hours. The method, then: as §5
as §6, with “PC” for “BC”, “PC-3” for “MDA-MB-231”, “hours.” for “h.”

Data set [15] deals with MDA-MB-231 xenograft tumors. In words: MDA-MB-231 anti-tumor efficacy study (xenograft). In kind it is in vivo. The method, then:
All animal studies were performed according to the guidelines and approval of the Animal Care Committee of the University of Maryland School of Medicine, Baltimore (UMB). Female Athymic Nude mice or male SCID (Charles Rivers Laboratories or UMB facilities) at 4-6 weeks of age were maintained in a pathogen-free environment. MDA-MB-231 (10×10^6) cells were subcutaneously implanted into Athymic Nude mice and CWR22Rv1 (1×10^6) cells into male SCID mice. Mice bearing established tumors (˜100 mm^3) were randomized into treatment groups of 6 and dosed with vehicle (40% β-cyclodexdrin in ddH2O), or compounds 20 and 22 (i.p., formulated in 40% β-cyclodexdrin in ddH2O, once daily, 5 days a week for 28 days).
The National Cancer Institute (NCI) criteria^23 were used to determine tumor growth efficacy of our compounds. Thus, percent test or treatment/control (% T/C), defined as the ratio of the median tumor volume for the treated group versus control group, was calculated as % T/C=[(median tumor volume of treated group at day 28)/(median tumor volume of control group at day 28)]×100.
Indeed, the two compounds were equipotent (FIG. 9A). […] Representative photos of the tumor-bearing mice in the control and the two treatment groups at termination of experiment (day 28) are presented in FIG. 9B.

For data set [16], the system named is Mnk-1, peIF4E and their downstream targets. The data set is described as follows: Molecular analysis of MDA-MB-231 tumors. It is filed as in vivo. Particulars: MDA-MB-231 tumors from treated mice. An excerpt: To assess their in vivo mode of action, we evaluated the effects of Compounds 20 and 22 on Mnk-1, peIF4E and their downstream targets.
The test system of data set [17] is LNCaP human prostate carcinoma cells. Particulars: previously reported in Ramamurthy V et al., read-out: GI50s LNCaP; cited from earlier work.
The test system of data set [18] is CWR22Rv1 human prostate carcinoma cells. The settings on record: previously reported in Ramamurthy V et al., read-out: GI50s CWR22Rv1; cited from earlier work.
Data set [19] relates to PC-3 human prostate carcinoma cells. The settings on record: PC-3 cells; previously reported in Ramamurthy V et al.; read-out: GI50s PC-3; cited from earlier work.
[20] abbreviates: MDA-MB-231 xenograft mice, i.p. 20 mg/kg 5×/week over 28 days.

Where two headings read alike, the source gives them in different places.

Turning to `CC(=O)C1=C(O)C=C2Oc3c(C(N)=O)c(O)cc(O)c3[C@]2(C)C1=O` [Cerco., cercosporamide], the IC50 is 43.6 µM in data set [1], 47.9 µM in data set [2] and 26 µM in data set [3].

Regarding `CC1=C(/C=C/C(C)=C/C=C/C(C)=C\C(=O)NCc2ccc(O)cc2)C(C)(C)CCC1n1ccnc1` (stereo not shown) [Compound 22, (2Z,4E,6E,8E)-9-(3-(1H-imidazol-1-yl)-2,6,6-trimethylcyclohex-1-en-1-yl)-N-(4-hydroxybenzyl)-3,7-dimethylnona-2,4,6,8-tetraenamide], in [4], the IC50 came out at 0.16 µM. For the same molecule, the IC50 in data set [5] is 2.23 µM. Also, in [6], the IC50 stood at 2.7 µM. For the same molecule, in data set [7], the IC50 is 2.45 µM. Also, the IC50 in data set [8] is 1.69 µM. Further, the IC50 in [9] stood at 1.86 µM. The IC50 in [10] turned out to be 3.54 µM. For the same molecule, in [11], the “expression of total eIF4E” value is given as “no noticeable effects”; the “expressions of Mnk1, Mnk2 and peIF4E” value was “significantly and dose-dependently, reduced”; the “formation of c-PARP (apoptosis)” value is recorded as “dose-dependent formation of c-PARP”. Further, the “migration of MDA-MB-231 cells” value in data set [12] is on record as “significantly inhibited migration”. In data set [13], the “cleaved PARP (c-PARP)” value is recorded as “induced cleaved PARP”; the “cyclin D1” value is on record as “significant depletion”; the “expression of total eIF4E” value is given as “no noticeable effects”; the “expressions of fAR, Mnk1 and Mnk2” value was “significantly and in a dose-dependent fashion, reduced”. For the same molecule, the “migration of PC-3 cells” value in data set [14] was “significantly inhibited migration”. Further, in [15] (setting [20]), the body weight entry is on record as “did not lose body weight” and the “signs of toxicity / adverse events” value is on record as “no apparent adverse events”. The “suppression of tumor growth” value in data set [15] (MDA-MB-231 xenografts, i.p. 20 mg/kg 5×/week over 28 days) turned out to be 85.4%. For the same molecule, in data set [15] (MDA-MB-231 xenografts, i.p. 20 mg/kg 5×/week, day 28), the “% T/C (treated/control median tumor volume)” value is 14.6%. Besides, in data set [16], the “Mnk1/2, peIF4E, cyclin D1 and Bcl-2 in tumors” value is recorded as “depletion”; the “pro-apoptotic proteins Bad and Bax in tumors” value was “up-regulation”.

With `CC1=C(/C=C/C(C)=C/C=C/C(C)=C/C(=O)O)C(C)(C)CCC1` [ATRA, all-trans retinoic acid], the IC50 in data set [1] was 14.1 µM; in [2] it was 14.1 µM; in [3], 22.9 µM; in [17], 47.9 µM; in data set [18], 25.1 µM; in [19] it was 36.3 µM.
